According to the supplement of paper PMC3974653:
Counter-ions that a name gives are not always drawn.

Each compound was assayed on MTT (mouse pheochromocytoma) (assay: IC50 of cell viability (ATP content)). Settings: (24 or 48 h).
Procedure, shortened: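 The IC50 was fitted with a four-parameter logistic equation to normalised CellTiter-Glo ATP luminescence from MTT mouse pheochromocytoma cells. These cells, in white 1536-well plates, had been treated for 24 or 48 hrs with library compounds at 8 final concentrations between 0.5 nM and 46 µM, and luminescence was read after 15 minutes. Positive-control wells served as 100% and DMSO wells as 0%.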

Structure (SMILES)	IC50 of cell viability [µM]
O=c1n(Cl)c(=O)n(Cl)c(=O)n1Cl [Symclosene]	> 46
CCOC(=O)Oc1c(OC)cc(C(=O)O[C@@H]2C[C@H]3CN4CCc5c([nH]c6cc(OC)ccc56)[C@@H]4C[C@@H]3[C@@H](C(=O)OC)[C@H]2OC)cc1OC [Syrosingopine]	> 46
C[S+](=O)([O-])Nc1cc2occ(NC=O)c(=O)c2cc1Oc1ccccc1 [T 614]	> 46
Nc1c2c(nc3ccccc13)CCCC2 [TACRINE]	> 46
CN1CC(=O)N2C(Cc3c([nH]c4ccccc34)[C@H]2c2ccc3c(c2)OCO3)C1=O (stereo not given in full) [TADALAFIL]	> 46
CC(C)(C)NCC(O)COc1ccc(NC(=O)NC2CCCCC2)cc1 (stereo not given) [TALINOLOLUM]	> 46
O=C1OC(OC(=O)c2cccnc2Nc2cccc(C(F)(F)F)c2)c2ccccc21 (stereo not given) [TALNIFLUMATUM]	> 46
CN1C(=O)C[C@@H](C(=O)N[C@@H](Cc2c[nH]cn2)C(=O)N2CCC[C@H]2C(N)=O)NC1=O [TALTIRELIN HYDRATE]	> 46
CC1(C)CCC(C)(C)c2cc(NC(=O)c3ccc(C(=O)O)cc3)ccc21 [TAMIBAROTENE]	> 46
CCOc1ccccc1OCCN[C@H](C)Cc1ccc(OC)c([S+](N)(=O)[O-])c1 [TAMSULOSIN HYDROCHLORIDE]	> 46
NCC[S+](=O)([O-])O [TAURINE]	> 46
CCOC(=O)c1ccc(C#Cc2ccc3c(c2)C(C)(C)CCS3)nc1 [TAZAROTENE]	> 46
O=c1[nH]c(=O)n(C2CCCO2)cc1F (stereo not given) [TEGAFUR]	> 46
CCCCCNC(=N)N/N=C/c1c[nH]c2ccc(OC)cc12 [TEGASEROD]	> 46
COP(=S)(OC)Oc1ccc(Sc2ccc(OP(=S)(OC)OC)cc2)cc1 [TEMEFOSUM]	> 46
c1csc(C2(N3CCCCC3)CCCCC2)c1 [TENOCYCLIDINUM]	> 46

More lines, now with the values ahead:

IC50 of cell viability [µM]	Structure (SMILES)
> 46	Cc1cn([C@H]2C[C@H](O)[C@@H](CO)O2)c(=O)[nH]c1=O [TELBIVUDINUM]
> 46	Cc1scc2c1N(C(=O)CN1CCN(C)CC1)c1ccccc1NC2=O [TELENZEPINE]
> 46	CCCc1nc2c(C)cc(-c3nc4ccccc4n3C)cc2n1Cc1ccc(-c2ccccc2C(=O)O)cc1 [TELMISARTAN]
> 46	CCOC(=O)C(CCc1ccccc1)NC1CSC(c2cccs2)CN(CC(=O)O)C1=O (stereo not given) [TEMOCAPRIL HYDROCHLORIDE]
> 46	Cn1nnc2c(C(N)=O)ncn2c1=O [TEMOZOLOMIDE]
> 46	CO[C@H]1C[C@@H]2CC[C@@H](C)[C@@](O)(O2)C(=O)C(=O)N2CCCC[C@H]2C(=O)O[C@H]([C@H](C)C[C@@H]2CC[C@@H](OC(=O)C(C)(CO)CO)[C@H](OC)C2)CC(=O)[C@H](C)C=C(C)[C@@H](O)[C@@H](OC)C(=O)[C@H](C)C[C@H](C)/C=C/C=C/C=C1C [TEMSIROLIMUS]
> 46	COc1ccc2[nH]c([S+]([O-])Cc3ncc(C)c(OC)c3C)nc2n1 (stereo not given) [TENATOPRAZOLE]
> 46	NC(=O)n1c(O)c(C(=O)c2cccs2)c2cc(Cl)ccc21 [TENIDAPUM]
> 46	CC(=O)CC/C=C(\C)CC/C=C(/C)CC/C=C(\C)CCC=C(C)C [TEPRENONE]
